Patent US11746113B2, “Labelled cannabinergic ligands and related analogs” (priority 2020, dated 2023)
One block for each molecule: values may come before it.

Columns and labels:
[1] = Fluorescence properties (excitation/emission maxima); type: physicochemical
CB1/CB2 receptors = test: Tight/irreversible binding: reduction of [3H]CP-55,940 Bmax after ligand pretreatment; conditions: receptors preincubated with ligand at 10-fold its Ki; saturation binding with [3H]CP-55,940; FIG. 8C
Procedure: Some disclosed compounds were tested for CB1 and CB2 receptor binding affinity (Tables 1, 2 and 3). As used herein “binding affinity” is represented by the Ki value. The Ki value is the affinity constant and describes the affinity of the compound for the receptor. The lower the Ki value, the higher the affinity of the compound for the receptor. A detailed description of the methods used to test “binding affinity” of compounds is given in Makriyannis, et al., US 2007, 0135388 and in Papahatjis, et al. J. Med. Chem. (2007) 4048, the content of each of which is hereby incorporated by reference. Functional characterization of some of the disclosed compounds was performed by using the cyclic adenosine monophosphate (cAMP) assay. The functional potency of the compound is represented by the EC50 value. The lower the EC50 value, the higher the functional potency. A detailed description of the cyclic adenosine monophosphate (cAMP) assay is given in Nikas et al. J. Med. Chem. (2010) 6996. The ability of some of the ligands to bind to the CB1/CB2 receptors with a tight/irreversible binding mode was determined by measuring reductions in the binding for the radioligand [3H]CP-55,940 when the receptor preparation was pretreated with the tight/irreversible ligand, and comparing it to the untreated sample as disclosed in Ogava et al. J. Med. Chem. (2015) 58, 3104. Reductions in the specific binding (Bmax) of [^3H]CP-55,940 after ligand pretreatment indicate ability of the ligand to tight/irreversibly bind to the receptor. As detailed in Ogava et al. J Med. Chem. (2015) 58, 3104, the experiment was conducted by pretreating the sample with a concentration equal to 10-fold the compound's Ki value for the receptor in question and subsequently measuring the decrease of Bmax obtained from a saturation curve using [3H]CP-55,940.

SMILES: CN(C)S(=O)(=O)c1ccc(NCc2cn(C[C@@H]3CC[C@@H]4[C@@H](C3)c3c(O)cc(C(C)(C)CCCCCCCl)cc3OC4(C)C)nn2)c2nonc12 [Compound 3.3, 7-(((1-(((6aR,9R,10aR)-3-(8-Chloro-2-methyloctan-2-yl)-1-hydroxy-6,6-dimethyl-6a,7,8,9,10,10a-hexahydro-6H-benzo [c]chromen-9-yl)methyl)-1H-1,2,3-triazol-4-yl)methyl)amino)-N,N-dimethylbenzo[c][1,2,5]oxadiazole-4-sulfonamide]
- Em λmax ([1]; Acetonitrile): 583
- Ex λmax ([1]; Acetonitrile): 416
- Em λmax ([1]; Ethanol): 581
- Ex λmax ([1]; Ethanol): 415

- melting point: 122 to 123 °C
SMILES: CCCCCCC(C)(C)c1cc(OC(=O)c2cc3ccc(OC)cc3oc2=O)c2c(c1)OC(C)(C)[C@@H]1CCC(=O)C[C@@H]21 [Compound 7.2, (6aR,10aR)-6,6-Dimethyl-3-(2-methyloctan-2-yl)-9-oxo-6a,7,8,9,10,10a-hexahydro-6H-benzo[c]chromen-1-yl 7-methoxy-2-oxo-2H-chromene-3-carboxylate]

- melting point: 132 to 133 °C
SMILES: CCCCCCC(C)(C)c1cc(OC(=O)C(C)(C)CCNC(=O)c2cc3cc4c5c(c3oc2=O)CCCN5CCC4)c2c(c1)OC(C)(C)[C@@H]1CCC(=O)C[C@@H]21 [Compound 9.10, (6aR,10aR)-6,6-Dimethyl-3-(2-methyloctan-2-yl)-9-oxo-6a,7,8,9,10,10a-hexahydro-6H-benzo[c]chromen-1-yl 2,2-dimethyl-4-(11-oxo-2,3,6,7-tetrahydro-1H, 5H, 11H-pyrano[2,3-f]pyrido[3,2,1-ij]quinoline-10-carboxamido)butanoate]

- melting point: 132 to 133 °C
SMILES: CCCCCCC(C)(C)c1cc(OC(=O)c2cc3cc4c5c(c3oc2=O)CCCN5CCC4)c2c(c1)OC(C)(C)[C@@H]1CCC(=O)C[C@@H]21 [Compound 7.1, (6aR,10aR)-6,6-Dimethyl-3-(2-methyloctan-2-yl)-9-oxo-6a,7,8,9,10,10a-hexahydro-6H-benzo[c]chromen-1-yl 11-oxo-2,3,6,7-tetrahydro-1H, 5H, 11H-pyrano[2,3-f]pyrido[3,2,1-ij]quinoline-10-carboxylate]

SMILES: CC(C)(CCCCCCCl)c1cc(O)c2c(c1)OC(C)(C)[C@@H]1CC[C@@H](Cn3cc(COCCCCNC(=O)c4cc5cc6c7c(c5oc4=O)CCCN7CCC6)nn3)C[C@@H]21 [Compound 3.4, N-{4-[(1-{[(6aR,9R,10aR)-3-(8-Chloro-2-methyloctan-2-yl)-1-hydroxy-6,6-dimethyl-6a,7,8,9,10,10a-hexahydro-6H-benzo[c]chromen-9-yl]methyl}-1H-1,2,3-triazol-4-yl)methoxy]butyl}-11-oxo-2,3,6,7-tetrahydro-1H, 5H, 11H-pyrano[2,3-f]pyrido[3,2,1-ij]quinoline-10-carboxamide]
- Em λmax ([1]; Acetonitrile): 488
- Ex λmax ([1]; Acetonitrile): 437
- Em λmax ([1]; Ethanol): 477
- Ex λmax ([1]; Ethanol): 436

SMILES: CC(C)(CCCCCCO[N+](=O)[O-])c1cc(O)c2c(c1)OC(C)(C)[C@@H]1CC[C@@H](COC(=O)CCCC[C@@H]3SC[C@@H]4NC(=O)N[C@@H]43)C[C@@H]21 [Compound 4.7, {(6aR,9R,10aR)-1-Hydroxy-6,6-dimethyl-3-[2-methyl-8-(nitrooxy)octan-2-yl]-6a,7,8,9,10,10a-hexahydro-6H-benzo[c]chromen-9-yl}methyl 5-[(3aS,4S,6aR)-2-oxohexahydro-1H-thieno[3,4-d]imidazol-4-yl]pentanoate]
- tight/irreversible binding mode (CB1/CB2 receptors): tight/irreversible

SMILES: CC(C)(CCCCCCCl)c1cc(O)c2c(c1)OC(C)(C)[C@@H]1CC[C@@H](Cn3cc(COC(=O)CCCC[C@@H]4SC[C@@H]5NC(=O)N[C@@H]54)nn3)C[C@@H]21 [Compound 3.1, (1-{[(6aR,9R,10aR)-3-(8-Chloro-2-methyloctan-2-yl)-1-hydroxy-6,6-dimethyl-6a,7,8,9,10,10a-hexahydro-6H-benzo [c]chromen-9-yl]methyl}-1H-1,2,3-triazol-4-yl)methyl 5-[(3aS,4S,6aR)-2-oxohexahydro-1H-thieno[3,4-d]imidazol-4-yl]pentanoate]
- tight/irreversible binding mode (CB1/CB2 receptors): tight/irreversible

SMILES: CC(C)(CCCCCCCl)c1cc(O)c2c(c1)OC(C)(C)[C@@H]1CC[C@@H](Cn3cc(COC(=O)CCCCCNC(=O)CCCC[C@@H]4SC[C@@H]5NC(=O)N[C@@H]54)nn3)C[C@@H]21 [Compound 3.2, (1-{[(6aR,9R,10aR)-3-(8-Chloro-2-methyloctan-2-yl)-1-hydroxy-6,6-dimethyl-6a,7,8,9,10,10a-hexahydro-6H-benzo [c]chromen-9-yl]methyl}-1H-1,2,3-triazol-4-yl)methyl 6-{5-[(3aS,4S,6aR)-2-oxohexahydro-1H-thieno[3,4-d]imidazol-4-yl]pentanamido}hexanoate]
- tight/irreversible binding mode (CB1/CB2 receptors): tight/irreversible

- melting point: 131 to 132 °C
SMILES: CCCCCCC(C)(C)c1cc(OC(=O)C(C)(C)CNC(=O)c2cc3cc4c5c(c3oc2=O)CCCN5CCC4)c2c(c1)OC(C)(C)[C@@H]1CCC(=O)C[C@@H]21 [Compound 9.9, (6aR,10aR)-6,6-Dimethyl-3-(2-methyloctan-2-yl)-9-oxo-6a,7,8,9,10,10a-hexahydro-6H-benzo[c]chromen-1-yl 2,2-dimethyl-3-(11-oxo-2,3,6,7-tetrahydro-1H, 5H, 11H-pyrano[2,3-f]pyrido[3,2,1-ij]quinoline-10-carboxamido)propanoate]

SMILES: CC(C)(CCCCCCCl)c1cc(O)c2c(c1)OC(C)(C)[C@@H]1CC[C@@H](COC(=O)CCCC[C@@H]3SC[C@@H]4NC(=O)N[C@@H]43)C[C@@H]21 [Compound 4.2, [(6aR,9R,10aR)-3-(8-Chloro-2-methyloctan-2-yl)-1-hydroxy-6,6-dimethyl-6a,7,8,9,10,10a-hexahydro-6H-benzo[c]chromen-9-yl]methyl 5-[(3a,4S,6aR)-2-oxohexahydro-1H-thieno[3,4-d]imidazol-4-yl]pentanoate]
- tight/irreversible binding mode (CB1/CB2 receptors): tight/irreversible

SMILES: CCCCCCC(C)(C)c1cc(OC(=O)C(C)(C)CCCCNC(=O)c2cc3cc4c5c(c3oc2=O)CCCN5CCC4)c2c(c1)OC(C)(C)C1CCC(=O)C[C@@H]21 (stereo in doubt) [Compound 9.12, (6aS,10aR)-6,6-Dimethyl-3-(2-methyloctan-2-yl)-9-oxo-6a,7,8,9,10,10a-hexahydro-6H-benzo[c]chromen-1-yl 2,2-dimethyl-6-(11-oxo-2,3,6,7-tetrahydro-1H, 5H, 11H-pyrano[2,3-f]pyrido[3,2,1-ij]quinoline-10-carboxamido)hexanoate]
- melting point: 133 to 134 °C

SMILES: CC(C)(CCCCCCCl)c1cc(O)c2c(c1)OC(C)(C)[C@@H]1CC[C@@H](Cn3cc(CNC(=O)c4cc5cc6c7c(c5oc4=O)CCCN7CCC6)nn3)C[C@@H]21 [Compound 3.13]
- Em λmax ([1]; Acetonitrile): 488
- Ex λmax ([1]; Acetonitrile): 435
- Em λmax ([1]; Ethanol): 478
- Ex λmax ([1]; Ethanol): 436

SMILES: CC(C)(CCCCCCCl)c1cc(O)c2c(c1)OC(C)(C)[C@@H]1CC[C@@H](COC(=O)CCCCCNC(=O)CCCC[C@@H]3SC[C@@H]4NC(=O)N[C@@H]43)C[C@@H]21 [Compound 4.4, [(6aR,9R,10aR)-3-(8-Chloro-2-methyloctan-2-yl)-1-hydroxy-6,6-dimethyl-6a,7,8,9,10,10a-hexahydro-6H-benzo[c]chromen-9-yl]methyl 6-{5-[(3aS,4S,6aR)-2-oxohexahydro-1H-thieno[3,4-d]imidazol-4-yl]pentanamido}hexanoate]
- tight/irreversible binding mode (CB1/CB2 receptors): tight/irreversible

SMILES: CCCCCCC(C)(C)c1cc(OC(=O)C(C)(C)CCCNC(=O)c2cc3cc4c5c(c3oc2=O)CCCN5CCC4)c2c(c1)OC(C)(C)C1CCC(=O)C[C@@H]21 (stereo in doubt) [Compound 9.11, (6aS,10aR)-6,6-Dimethyl-3-(2-methyloctan-2-yl)-9-oxo-6a,7,8,9,10,10a-hexahydro-6H-benzo[c]chromen-1-yl 2,2-dimethyl-5-(11-oxo-2,3,6,7-tetrahydro-1H, 5H, 11H-pyrano[2,3-f]pyrido[3,2,1-ij]quinoline-10-carboxamido)pentanoate]
- melting point: 130 to 131 °C
